US10106544B2, “1,2-dihydro-3H-pyrrolo[1,2-C]imidazol-3-one derivatives and their use as antibacterial agents” (priority 2014, dated 2018)
Converted amounts (≈) assume the structure as drawn.

Experiments:
Experiment in all cases: Bacterial growth minimal inhibitory concentration (microdilution, cation-adjusted Mueller-Hinton Broth)
Format in all cases: cell-based
E. coli ATCC25922 = conditions: quinolone-sensitive strain; for MIC: Escherichia coli, ATCC25922, read-out: MIC for E. coli ATCC25922
Protocol: (§1) Minimal Inhibitory Concentrations (MICs; mg/L) were determined in cation-adjusted Mueller-Hinton Broth by a microdilution method following the description given in “Methods for Dilution Antimicrobial Susceptibility Tests for Bacteria that Grow Aerobically”, Approved standard, 7th ed., a Clinical and Laboratory Standards Institute (CLSI) Document M7-A7, Wayne, Pa., USA (2006).
(§2) All Example compounds were tested against several Gram-positive and Gram-negative bacteria. […] K. pneumoniae A-651 is a multiply-resistant strain (in particular quinolone-resistant), while E. coli ATCC25922 and P. aeruginosa ATCC27853 are quinolone-sensitive strains.

P. aeruginosa ATCC27853 = conditions: for MIC: Pseudomonas aeruginosa, ATCC27853, quinolone-sensitive strain, read-out: MIC for P. aeruginosa ATCC27853
Protocol: as §1, §2

K. pneumoniae A-651 = conditions: multiply-resistant strain (in particular quinolone-resistant); for MIC: Klebsiella pneumoniae, A651, read-out: MIC for K. Pneumoniae A-651
Protocol: as §1, §2

MIC (E. coli ATCC25922)	MIC (P. aeruginosa ATCC27853)	MIC (K. pneumoniae A-651)	MIC for E. coli ATCC25922 (E. coli ATCC25922)	MIC for P. aeruginosa ATCC27853 (P. aeruginosa ATCC27853; quinolone-sensitive strain)	MIC for K. Pneumoniae A-651 (K. pneumoniae A-651)	SMILES
2 µg/mL (≈ 4.59 µM)	4 µg/mL (≈ 9.19 µM)	2 µg/mL (≈ 4.59 µM)	–	–	–	C[C@@](CCN1Cc2cc(C#CC#CC3(O)COC3)cn2C1=O)(C(=O)NO)S(C)(=O)=O [Example 4, (R)-N-hydroxy-4-(6-((3-hydroxyoxetan-3-yl)buta-1,3-diyn-1-yl)-3-oxo-1H-pyrrolo[1,2-c]imidazol-2(3H)-yl)-2-methyl-2-(methylsulfonyl)butanamide]
≤ 0.063 µg/mL	0.5 µg/mL (≈ 1.03 µM)	0.125 µg/mL (≈ 0.257 µM)	–	–	–	C[C@@](CCN1Cc2cc(C#Cc3ccc([C@@H]4C[C@H]4CO)cc3)cn2C1=O)(C(=O)NO)S(C)(=O)=O [Example 5, (R)-N-hydroxy-4-(6-((4-((1R,2R)-2-(hydroxymethyl)cyclopropyl)phenyl)ethynyl)-3-oxo-1H-pyrrolo[1,2-c]imidazol-2(3H)-yl)-2-methyl-2-(methylsulfonyl)butanamide]
0.031 µg/mL (≈ 0.0638 µM)	0.5 µg/mL (≈ 1.03 µM)	0.125 µg/mL (≈ 0.257 µM)	–	–	–	C[C@@](CCN1Cc2cc(C#Cc3ccc([C@H]4C[C@@H]4CO)cc3)cn2C1=O)(C(=O)NO)S(C)(=O)=O [Example 6, (R)-N-hydroxy-4-(6-((4-((1S,2S)-2-(hydroxymethyl)cyclopropyl)phenyl)ethynyl)-3-oxo-1H-pyrrolo[1,2-c]imidazol-2(3H)-yl)-2-methyl-2-(methylsulfonyl)butanamide]
0.125 µg/mL (≈ 0.257 µM)	0.5 µg/mL (≈ 1.03 µM)	0.25 µg/mL (≈ 0.515 µM)	–	–	–	C[C@@](CCN1Cc2cc(C#Cc3ccc(C4(CO)CC4)cc3)cn2C1=O)(C(=O)NO)S(C)(=O)=O [Example 7, (R)-N-hydroxy-4-(6-((4-(1-(hydroxymethyl)cyclopropyl)phenyl)ethynyl)-3-oxo-1H-pyrrolo[1,2-c]imidazol-2(3H)-yl)-2-methyl-2-(methylsulfonyl)butanamide]
8 µg/mL	4 µg/mL	8 µg/mL	–	–	–	C[C@@](CCN1Cc2cc(C#Cc3ccc(C4(CN)CC4)cc3)cn2C1=O)(C(=O)NO)S(C)(=O)=O.O=CO [Example 8, (R)-4-(6-((4-(1-(aminomethyl)cyclopropyl)phenyl)ethynyl)-3-oxo-1H-pyrrolo[1,2-c]imidazol-2(3H)-yl)-N-hydroxy-2-methyl-2-(methylsulfonyl)butanamide formate]
0.25 µg/mL (≈ 0.513 µM)	0.5 µg/mL (≈ 1.03 µM)	0.5 µg/mL (≈ 1.03 µM)	–	–	–	CC(C)(CO)c1ccc(C#Cc2cc3n(c2)C(=O)N(CC[C@](C)(C(=O)NO)S(C)(=O)=O)C3)cc1 [Example 9, (R)-N-hydroxy-4-(6-((4-(1-hydroxy-2-methylpropan-2-yl)phenyl)ethynyl)-3-oxo-1H-pyrrolo[1,2-c]imidazol-2(3H)-yl)-2-methyl-2-(methylsulfonyl)butanamide]
0.25 µg/mL (≈ 0.528 µM)	0.5 µg/mL (≈ 1.06 µM)	0.25 µg/mL (≈ 0.528 µM)	–	–	–	CC(C)(O)c1ccc(C#Cc2cc3n(c2)C(=O)N(CC[C@](C)(C(=O)NO)S(C)(=O)=O)C3)cc1 [Example 10, (R)-N-hydroxy-4-(6-((4-(2-hydroxypropan-2-yl)phenyl)ethynyl)-3-oxo-1H-pyrrolo[1,2-c]imidazol-2(3H)-yl)-2-methyl-2-(methylsulfonyl)butanamide]
8 µg/mL (≈ 18.9 µM)	8 µg/mL (≈ 18.9 µM)	16 µg/mL (≈ 37.8 µM)	–	–	–	C[C@@](CCN1Cc2cc(C#CC#C[C@H](O)CO)cn2C1=O)(C(=O)NO)S(C)(=O)=O [Example 11, (R)-4-(6-((S)-5,6-dihydroxyhexa-1,3-diyn-1-yl)-3-oxo-1H-pyrrolo[1,2-c]imidazol-2(3H)-yl)-N-hydroxy-2-methyl-2-(methylsulfonyl)butanamide]
0.25 µg/mL (≈ 0.559 µM)	0.25 µg/mL (≈ 0.559 µM)	0.25 µg/mL (≈ 0.559 µM)	–	–	–	C[C@@](CCN1Cc2cc(C#CC#CC[C@@H]3C[C@@H]3CO)cn2C1=O)(C(=O)NO)S(C)(=O)=O [Example 12, (R)-N-hydroxy-4-(6-(5-((1S,2S)-2-(hydroxymethyl)cyclopropyl)penta-1,3-diyn-1-yl)-3-oxo-1H-pyrrolo[1,2-c]imidazol-2(3H)-yl)-2-methyl-2-(methylsulfonyl)butanamide]
0.125 µg/mL (≈ 0.272 µM)	0.5 µg/mL (≈ 1.09 µM)	0.25 µg/mL (≈ 0.544 µM)	–	–	–	C[C@@H](O)c1ccc(C#Cc2cc3n(c2)C(=O)N(CC[C@](C)(C(=O)NO)S(C)(=O)=O)C3)cc1 [Example 13, (R)-N-hydroxy-4-(6-((4-((R)-1-hydroxyethyl)phenyl)ethynyl)-3-oxo-1H-pyrrolo[1,2-c]imidazol-2(3H)-yl)-2-methyl-2-(methylsulfonyl)butanamide]
–	–	–	0.125 µg/mL	1 µg/mL	0.25 µg/mL	C[C@H](O)c1ccc(C#Cc2cc3n(c2)C(=O)N(CC[C@](C)(C(=O)NO)S(C)(=O)=O)C3)cc1 [Example 14]
0.5 µg/mL (≈ 1.15 µM)	1 µg/mL (≈ 2.31 µM)	1 µg/mL (≈ 2.31 µM)	–	–	–	C[C@@](CCN1Cc2cc(C#CC#CC3(CO)CC3)cn2C1=O)(C(=O)NO)S(C)(=O)=O [Example 15, (R)-N-hydroxy-4-(6-((1-(hydroxymethyl)cyclopropyl)buta-1,3-diyn-1-yl)-3-oxo-1H-pyrrolo[1,2-c]imidazol-2(3H)-yl)-2-methyl-2-(methylsulfonyl)butanamide]
≤ 0.063 µg/mL	0.5 µg/mL (≈ 1.09 µM)	0.25 µg/mL (≈ 0.544 µM)	–	–	–	C[C@@](CCN1Cc2cc(C#Cc3ccc(CCO)cc3)cn2C1=O)(C(=O)NO)S(C)(=O)=O [Example 16, (R)-N-hydroxy-4-(6-((4-(2-hydroxyethyl)phenyl)ethynyl)-3-oxo-1H-pyrrolo[1,2-c]imidazol-2(3H)-yl)-2-methyl-2-(methylsulfonyl)butanamide]
1 µg/mL (≈ 2.1 µM)	1 µg/mL (≈ 2.1 µM)	1 µg/mL (≈ 2.1 µM)	–	–	–	C[C@@](CCN1Cc2cc(C#Cc3ccc([C@@H](O)CO)cc3)cn2C1=O)(C(=O)NO)S(C)(=O)=O [Example 17, (R)-4-(6-((4-((R)-1,2-dihydroxyethyl)phenyl)ethynyl)-3-oxo-1H-pyrrolo[1,2-c]imidazol-2(3H)-yl)-N-hydroxy-2-methyl-2-(methylsulfonyl)butanamide]
0.5 µg/mL (≈ 1.05 µM)	1 µg/mL (≈ 2.1 µM)	1 µg/mL (≈ 2.1 µM)	–	–	–	C[C@@](CCN1Cc2cc(C#Cc3ccc([C@H](O)CO)cc3)cn2C1=O)(C(=O)NO)S(C)(=O)=O [Example 18, (R)-4-(6-((4-((S)-1,2-dihydroxyethyl)phenyl)ethynyl)-3-oxo-1H-pyrrolo[1,2-c]imidazol-2(3H)-yl)-N-hydroxy-2-methyl-2-(methylsulfonyl)butanamide]
0.25 µg/mL (≈ 0.496 µM)	1 µg/mL (≈ 1.99 µM)	0.5 µg/mL (≈ 0.993 µM)	–	–	–	C[C@@](CCN1Cc2cc(C#Cc3ccc(C4(CO)CC4)cc3F)cn2C1=O)(C(=O)NO)S(C)(=O)=O [Example 19, (R)-4-(6-((2-fluoro-4-(1-(hydroxymethyl)cyclopropyl)phenyl)ethynyl)-3-oxo-1H-pyrrolo[1,2-c]imidazol-2(3H)-yl)-N-hydroxy-2-methyl-2-(methylsulfonyl)butanamide]
1 µg/mL (≈ 1.84 µM)	4 µg/mL (≈ 7.36 µM)	4 µg/mL (≈ 7.36 µM)	–	–	–	C[C@@](CCN1Cc2cc(C#Cc3ccc(N4CCN(CCO)C4=O)cc3)cn2C1=O)(C(=O)NO)S(C)(=O)=O [Example 20, (R)-N-hydroxy-4-(6-((4-(3-(2-hydroxyethyl)-2-oxoimidazolidin-1-yl)phenyl)ethynyl)-3-oxo-1H-pyrrolo[1,2-c]imidazol-2(3H)-yl)-2-methyl-2-(methylsulfonyl)butanamide]
0.25 µg/mL (≈ 0.494 µM)	1 µg/mL (≈ 1.97 µM)	1 µg/mL (≈ 1.97 µM)	–	–	–	C[C@@](CCN1Cc2cc(C#Cc3ccc(NC(=O)CO)c(F)c3)cn2C1=O)(C(=O)NO)S(C)(=O)=O [Example 21, (R)-4-(6-((3-fluoro-4-(2-hydroxyacetamido)phenyl)ethynyl)-3-oxo-1H-pyrrolo[1,2-c]imidazol-2(3H)-yl)-N-hydroxy-2-methyl-2-(methylsulfonyl)butanamide]
0.125 µg/mL (≈ 0.263 µM)	1 µg/mL (≈ 2.1 µM)	0.5 µg/mL (≈ 1.05 µM)	–	–	–	C[C@@](CCN1Cc2cc(C#Cc3ccc(OCCO)cc3)cn2C1=O)(C(=O)NO)S(C)(=O)=O [Example 22, (R)-N-hydroxy-4-(6-((4-(2-hydroxyethoxy)phenyl)ethynyl)-3-oxo-1H-pyrrolo[1,2-c]imidazol-2(3H)-yl)-2-methyl-2-(methylsulfonyl)butanamide]
1 µg/mL (≈ 2.06 µM)	4 µg/mL (≈ 8.22 µM)	4 µg/mL (≈ 8.22 µM)	–	–	–	C[C@@](CCN1Cc2cc(C#Cc3ccc(C4(CO)CC4)nc3)cn2C1=O)(C(=O)NO)S(C)(=O)=O [Example 23, (R)-N-hydroxy-4-(6-((6-(1-(hydroxymethyl)cyclopropyl)pyridin-3-yl)ethynyl)-3-oxo-1H-pyrrolo[1,2-c]imidazol-2(3H)-yl)-2-methyl-2-(methylsulfonyl)butanamide]
8 µg/mL	8 µg/mL	32 µg/mL	–	–	–	C[C@@](CCN1Cc2cc(C#Cc3ccc(C4(CO)CC4)cn3)cn2C1=O)(C(=O)NO)S(C)(=O)=O.O=CO [Example 24, (R)-N-hydroxy-4-(6-((5-(1-(hydroxymethyl)cyclopropyl)pyridin-2-yl)ethynyl)-3-oxo-1H-pyrrolo[1,2-c]imidazol-2(3H)-yl)-2-methyl-2-(methylsulfonyl)butanamide formate]
0.125 µg/mL (≈ 0.243 µM)	1 µg/mL (≈ 1.94 µM)	0.25 µg/mL (≈ 0.486 µM)	–	–	–	C[C@@](CCN1Cc2cc(C#Cc3ccc(CN4CCOCC4)cc3)cn2C1=O)(C(=O)NO)S(C)(=O)=O [Example 25, (R)-N-hydroxy-2-methyl-2-(methylsulfonyl)-4-(6-((4-(morpholinomethyl)phenyl)ethynyl)-3-oxo-1H-pyrrolo[1,2-c]imidazol-2(3H)-yl)butanamide]
1 µg/mL (≈ 1.8 µM)	4 µg/mL (≈ 7.21 µM)	1 µg/mL (≈ 1.8 µM)	–	–	–	C[C@@](CCN1Cc2cc(C#Cc3ccc(C4(CN5CCOCC5)CC4)cc3)cn2C1=O)(C(=O)NO)S(C)(=O)=O [Example 26, (R)-N-hydroxy-2-methyl-2-(methylsulfonyl)-4-(6-((4-(1-(morpholinomethyl)cyclopropyl)phenyl)ethynyl)-3-oxo-1H-pyrrolo[1,2-c]imidazol-2(3H)-yl)butanamide]
